US8450243B2, “Herbicidal quinoline and 1,8-naphthyridine compounds” (Syngenta Limited, priority 2009, dated 2013)

How the values were obtained:
Format in all cases: in vivo
[1] = test system: Abuthilon theophrasti (ABUTH); assay: Herbicidal glasshouse test, pre-emergence; conditions: PRE Application, evaluated after 13 days; for damage to plant (100=total damage to plant; 0=no damage to plant): 250 g/ha
Procedure: (§1) Seeds of a variety of test species were sown in standard soil in pots (Alopecurus myosuroides (ALOMY), Setaria faberi (SETFA), Echinochloa crus-galli (ECHCG), Abuthilon theophrasti (ABUTH) and Amaranthus retoflexus (AMARE)). After cultivation for one day (pre-emergence) or after 8 days cultivation (post-emergence) under controlled conditions in a glasshouse (at 24/16° C., day/night; 14 hours light; 65% humidity), the plants were sprayed with an aqueous spray solution derived from the formulation of the technical active ingredient in acetone/water (50:50) solution containing 0.5% Tween 20 (polyoxyethelyene sorbitan monolaurate, CAS RN 9005-64-5). Compounds were applied at 250 g/ha. The test plants were then grown in a glasshouse under controlled conditions in a glasshouse (at 24/16° C., day/night; 14 hours light; 65% humidity) and watered twice daily. After 13 days for pre and post-emergence, the test was evaluated (100=total damage to plant; 0=no damage to plant).

[2] = test system: Alopecurus myosuroides (ALOMY); assay: Herbicidal glasshouse test, pre-emergence; conditions: PRE Application, evaluated after 13 days; for damage to plant (100=total damage to plant; 0=no damage to plant): 250 g/ha
Procedure: as §1

Setaria faberi (SETFA) [3] = assay: Herbicidal glasshouse test, pre-emergence; conditions: PRE Application, evaluated after 13 days; for damage to plant (100=total damage to plant; 0=no damage to plant): 250 g/ha
Procedure: as §1

[4] = test system: Echinochloa crus-galli (ECHCG); assay: Herbicidal glasshouse test, pre-emergence; conditions: PRE Application, evaluated after 13 days; for damage to plant (100=total damage to plant; 0=no damage to plant): 250 g/ha
Procedure: as §1

[5] = test system: Amaranthus retoflexus (AMARE); assay: Herbicidal glasshouse test, pre-emergence; conditions: PRE Application, evaluated after 13 days; for damage to plant (100=total damage to plant; 0=no damage to plant): 250 g/ha
Procedure: as §1

[6] = test system: Abuthilon theophrasti (ABUTH); assay: Herbicidal glasshouse test, post-emergence; conditions: POST Application, evaluated after 13 days; for damage to plant (100=total damage to plant; 0=no damage to plant): 250 g/ha
Procedure: as §1

[7] = test system: Alopecurus myosuroides (ALOMY); assay: Herbicidal glasshouse test, post-emergence; conditions: POST Application, evaluated after 13 days; for damage to plant (100=total damage to plant; 0=no damage to plant): 250 g/ha
Procedure: as §1

Setaria faberi (SETFA) [8] = assay: Herbicidal glasshouse test, post-emergence; conditions: POST Application, evaluated after 13 days; for damage to plant (100=total damage to plant; 0=no damage to plant): 250 g/ha
Procedure: as §1

[9] = test system: Echinochloa crus-galli (ECHCG); assay: Herbicidal glasshouse test, post-emergence; conditions: POST Application, evaluated after 13 days; for damage to plant (100=total damage to plant; 0=no damage to plant): 250 g/ha
Procedure: as §1

[10] = test system: Amaranthus retoflexus (AMARE); assay: Herbicidal glasshouse test, post-emergence; conditions: POST Application, evaluated after 13 days; for damage to plant (100=total damage to plant; 0=no damage to plant): 250 g/ha
Procedure: as §1

Row | SMILES | damage to plant (100=total damage to plant; 0=no damage to plant) [1] | damage to plant (100=total damage to plant; 0=no damage to plant) [2] | damage to plant (100=total damage to plant; 0=no damage to plant) (Setaria faberi (SETFA) [3]) | damage to plant (100=total damage to plant; 0=no damage to plant) [4] | damage to plant (100=total damage to plant; 0=no damage to plant) [5] | damage to plant (100=total damage to plant; 0=no damage to plant) [6] | damage to plant (100=total damage to plant; 0=no damage to plant) [7] | damage to plant (100=total damage to plant; 0=no damage to plant) (Setaria faberi (SETFA) [8]) | damage to plant (100=total damage to plant; 0=no damage to plant) [9] | damage to plant (100=total damage to plant; 0=no damage to plant) [10] | pest or weed control at 250 g/ha ([1]; Abutilon theophrasti, pre-emergence, 312 h, read-out: damage to plant (100=total damage to plant; 0=no damage to plant)) | pest or weed control at 250 g/ha ([2]; Alopecurus myosuroides, pre-emergence, 312 h, read-out: damage to plant (100=total damage to plant; 0=no damage to plant)) | pest or weed control at 250 g/ha (Setaria faberi (SETFA) [3]; Setaria faberi, pre-emergence, 312 h, read-out: damage to plant (100=total damage to plant; 0=no damage to plant)) | pest or weed control at 250 g/ha ([4]; Echinochloa crus-galli, pre-emergence, 312 h, read-out: damage to plant (100=total damage to plant; 0=no damage to plant)) | pest or weed control at 250 g/ha ([5]; Amaranthus retroflexus, pre-emergence, 312 h, read-out: damage to plant (100=total damage to plant; 0=no damage to plant)) | pest or weed control at 250 g/ha ([6]; Abutilon theophrasti, post-emergence, 312 h, read-out: damage to plant (100=total damage to plant; 0=no damage to plant)) | pest or weed control at 250 g/ha ([7]; Alopecurus myosuroides, post-emergence, 312 h, read-out: damage to plant (100=total damage to plant; 0=no damage to plant)) | pest or weed control at 250 g/ha (Setaria faberi (SETFA) [8]; Setaria faberi, post-emergence, 312 h, read-out: damage to plant (100=total damage to plant; 0=no damage to plant)) | pest or weed control at 250 g/ha ([9]; Echinochloa crus-galli, post-emergence, 312 h, read-out: damage to plant (100=total damage to plant; 0=no damage to plant)) | pest or weed control at 250 g/ha ([10]; Amaranthus retroflexus, post-emergence, 312 h, read-out: damage to plant (100=total damage to plant; 0=no damage to plant))
1 | O=C1CCCC(=O)C1C(=O)c1cc2cc(F)cnc2n(-c2cccc(Cl)c2)c1=O [Compound 4.25] | 90 | 90 | 100 | 100 | 50 | 80 | 80 | 80 | 80 | 70 | – | – | – | – | – | – | – | – | – | –
2 | O=C1CCCC(=O)C1C(=O)c1cc2cc(F)cnc2n(-c2ccccc2Cl)c1=O [Compound 4.28] | 100 | 90 | 100 | 100 | 50 | 80 | 70 | 80 | 80 | 80 | – | – | – | – | – | – | – | – | – | –
3 | COc1ccccc1-n1c(=O)c(C(=O)C2C(=O)CCCC2=O)cc2cc(F)cnc21 [Compound 4.33] | 100 | 100 | 100 | 100 | 100 | 80 | 100 | 90 | 90 | 80 | – | – | – | – | – | – | – | – | – | –
4 | O=C1CCCC(=O)C1C(=O)c1cc2cc(F)cnc2n(-c2ccccc2C(F)(F)F)c1=O [Compound 4.34] | 100 | 100 | 100 | 100 | 100 | 80 | 90 | 80 | 90 | 80 | – | – | – | – | – | – | – | – | – | –
5 | O=C1CCCC(=O)C1C(=O)c1cc2cc(F)cnc2n(-c2ccc(F)cc2F)c1=O [Compound 4.35] | 100 | 90 | 100 | 100 | 100 | 80 | 90 | 80 | 90 | 90 | – | – | – | – | – | – | – | – | – | –
6 | O=C1CCCC(=O)C1C(=O)c1cc2cc(F)cnc2n(-c2ccccc2[N+](=O)[O-])c1=O [Compound 4.36] | – | – | – | – | – | – | – | – | – | – | 100% | 90% | 100% | 100% | 100% | 80% | 90% | 80% | 90% | 80%
